Reference: patent US20230122991A1, “GROWTH FACTOR FORMULATION FOR CONDITION ASSOCIATED WITH OTIC EVENT” (OTONOMY, INC., priority 2020, published 2023)

Key:
[1] = test system: Spiral ganglion neurons (SGNs); assay: Survival of spiral ganglion neurons (Example C); type: cell-based, rat; settings: 1 μM; compared to a vehicle-only control, 0.01% DMSO; FIG. 6C
Experimental: Spiral ganglion neurons (SGNs) were harvested from P1-P3 rates, dissociated, and cultured in 96-well plates. The SGNs were treated with neurotrophins and/or antibodies at various concentrations. After about 24 hours, media was exchanged to serum-free media and the neurotrophins and/or antibodies were replenished. Cells were cultured for an additional 48-72 hours before being fixed using 4% paraformaldehyde (PFA) and stained using 4′,6-diamidino-2-phenylindole (DAPI). […] Surviving neurons were identified as cells with intact soma and at least one neurite.

SGNs = assay: SGN complexity, dissociated SGNs (Example D); type: cell-based, rat; settings: differences upon treatment, FIG. 7D
Excerpt: SGNs were immunostained, imaged, and batch analyzed with PerkinElmer Harmony 4.6 software. Changes in the complexities of SGNs upon treatment with various agents were examined. […] All of the images in a single well were stitched together and analyzed. SGN somas are shown in the upper right panel and SGN neurites are shown in the lower left panel. As shown in the lower right panel, each neurite tree is assigned to a single cell for analysis. Depending on the stitching, occasionally neurites will not meet the criteria due to gaps that exceed a user-defined threshold.

In the case of `OCCN(CCO)c1ccc(C(c2ccc(Cl)cc2)c2ccc(N(CCO)CCO)cc2)cc1` [LM22b10], the “Survival of SGNs” value [1] is reported as “not improved”.

B1: neurotrophin-3 (protein, UniProt P20783 139-257, looked up)
Neurotrophin-3: YAEHKSHRGEYSVCDSESLWVTDKSSAIDIRGHQVTVLGEIKTGNSPVKQYFYETRCKEARPVKNGCRGIDDKHWNSQCKTSQTYVRALTSENNKLVGWRWIRIDTSCVCALSRKIGRT
modifications: Neurotrophin-3
For B1, the “total neurite length, total number of extremities, segments, and nodes per cell” value (SGNs) was “not statistically significant”.
